Test results from the NIST ThermoML archive (doi:10.1016/j.jct.2013.12.009).
± gives the expanded uncertainty stated by the source.

How the values were obtained:
[1] = for speed of sound / kinematic viscosity / mass density: Liquid; for speed of sound: Sing-around technique in a fixed-path interferometer; for surface tension liquid-gas: Pendant drop shape; for kinematic viscosity: Capillary tube (Ostwald / Ubbelohde) method; for mass density: Vibrating tube method
[2] = xn = mol fraction of the nth substance listed; conditions: for surface tension liquid-gas: Pendant drop shape; for viscosity / mass density: 101 kPa, Liquid; for viscosity: Concentric cylinders viscometry; for mass density: Vibrating tube method

CCCC[N+]1(C)CCCC1.O=S(=O)([N-]S(=O)(=O)C(F)(F)F)C(F)(F)F
[1], 101.33 kPa
Conditions	kinematic viscosity [m2/s]	mass density [kg/m3]	speed of sound [m/s]
288.02 K	–	–	1293.9 ± 1.5
288.15 K	8.9e-05 ± 2.2e-06	1403.37 ± 0.58	–
293.01 K	–	–	1281.8 ± 1.5
293.15 K	6.96e-05 ± 1.6e-06	1398.92 ± 0.58	–
298.01 K	–	–	1270 ± 1.5
298.15 K	5.57e-05 ± 1.3e-06	1394.49 ± 0.57	–
303.15 K	4.52e-05 ± 1e-06	1390.09 ± 0.57	–
303.2 K	–	–	1258 ± 1.5
308.14 K	–	–	1246.8 ± 1.5
308.15 K	3.69e-05 ± 8.3e-07	1385.66 ± 0.57	–
313.15 K	3.06e-05 ± 6.8e-07	1381.29 ± 0.56	1235.7 ± 1.5
318.12 K	–	–	1224.7 ± 1.5
318.15 K	2.55e-05 ± 5.7e-07	1376.92 ± 0.56	–
323.13 K	–	–	1213.8 ± 1.5
323.15 K	2.15e-05 ± 4.8e-07	1372.54 ± 0.55	–

[1]
Conditions	surface tension liquid-gas [mN/m]
288.15 K	33.71 ± 0.41
293.15 K	33.44 ± 0.4
298.15 K	33.22 ± 0.4
303.15 K	33.02 ± 0.4
308.15 K	32.82 ± 0.4
313.15 K	32.6 ± 0.4
318.15 K	32.35 ± 0.39
323.15 K	32.15 ± 0.39

CCC[N+]1(C)CCCC1.O=S(=O)([N-]S(=O)(=O)C(F)(F)F)C(F)(F)F
[1], 101.33 kPa
Conditions	kinematic viscosity [m2/s]	mass density [kg/m3]	speed of sound [m/s]
288.01 K	–	–	1294.4 ± 1.5
288.15 K	6.82e-05 ± 1.6e-06	1436.86 ± 0.61	–
293.01 K	–	–	1282.8 ± 1.5
293.15 K	5.33e-05 ± 1.2e-06	1432.36 ± 0.61	–
297.99 K	–	–	1271.3 ± 1.5
298.15 K	4.26e-05 ± 9.7e-07	1427.83 ± 0.61	–
303.15 K	3.48e-05 ± 7.8e-07	1423.32 ± 0.6	–
303.24 K	–	–	1259.5 ± 1.5
308.15 K	2.88e-05 ± 6.4e-07	1418.81 ± 0.6	–
308.21 K	–	–	1248.6 ± 1.5
313.15 K	2.42e-05 ± 5.3e-07	1414.3 ± 0.59	–
313.2 K	–	–	1237.6 ± 1.5
318.15 K	2.06e-05 ± 4.5e-07	1409.86 ± 0.59	–
318.16 K	–	–	1226.9 ± 1.5
323.15 K	1.76e-05 ± 3.9e-07	1405.41 ± 0.58	–
323.21 K	–	–	1216.2 ± 1.5

[1]
Conditions	surface tension liquid-gas [mN/m]
288.15 K	35.04 ± 0.41
293.15 K	34.87 ± 0.41
298.15 K	34.61 ± 0.41
303.15 K	34.37 ± 0.41
308.15 K	34.14 ± 0.41
313.15 K	33.94 ± 0.41
318.15 K	33.72 ± 0.41
323.15 K	33.48 ± 0.4

CCCC[N+]1(C)CCCC1.O=S(=O)([N-]S(=O)(=O)C(F)(F)F)C(F)(F)F + CC#N
[2]
Conditions	mass density, 288.15 K [kg/m3]	mass density, 298.15 K [kg/m3]	mass density, 308.15 K [kg/m3]	surface tension liquid-gas, 288.15 K [mN/m]	surface tension liquid-gas, 298.15 K [mN/m]	surface tension liquid-gas, 308.15 K [mN/m]	viscosity, 288.15 K [mPa·s]	viscosity, 298.15 K [mPa·s]	viscosity, 308.15 K [mPa·s]
x1 = 0.053	941.8 ± 0.7	931.2 ± 0.7	920.5 ± 0.8	30.92 ± 0.35	29.78 ± 0.35	28.55 ± 0.34	–	–	–
x1 = 0.1924	–	–	–	–	–	–	2.41 ± 0.05	2.02 ± 0.04	1.73 ± 0.04
x1 = 0.1989	1156.4 ± 0.5	1146.2 ± 0.5	1136.2 ± 0.5	32.45 ± 0.36	31.45 ± 0.36	30.57 ± 0.35	–	–	–
x1 = 0.3593	1263.1 ± 0.3	1253.5 ± 0.3	1243.9 ± 0.4	33.18 ± 0.37	32.48 ± 0.37	31.76 ± 0.36	–	–	–
x1 = 0.4602	–	–	–	–	–	–	13.16 ± 0.3	9.79 ± 0.21	7.56 ± 0.16
x1 = 0.5201	1322.1 ± 0.3	1312.7 ± 0.3	1303.4 ± 0.3	33.45 ± 0.38	32.84 ± 0.37	32.2 ± 0.37	–	–	–
x1 = 0.598	–	–	–	–	–	–	26.33 ± 0.6	18.47 ± 0.4	13.58 ± 0.29
x1 = 0.6103	1344.7 ± 0.4	1335.5 ± 0.4	1326.4 ± 0.4	33.51 ± 0.38	32.97 ± 0.38	32.44 ± 0.38	–	–	–
x1 = 0.788	1377.3 ± 0.4	1368.3 ± 0.4	1359.2 ± 0.4	33.58 ± 0.39	33.13 ± 0.39	32.68 ± 0.39	–	–	–
x1 = 0.8159	–	–	–	–	–	–	65.88 ± 1.4	42.55 ± 0.95	29.18 ± 0.66
x1 = 0.9394	1396.6 ± 0.5	1387.8 ± 0.5	1379 ± 0.5	33.71 ± 0.4	33.2 ± 0.4	32.72 ± 0.39	–	–	–
x1 = 1	1403.4 ± 0.6	1394.5 ± 0.6	1385.7 ± 0.6	33.71 ± 0.4	33.22 ± 0.4	32.82 ± 0.4	–	–	–

CCCC[N+]1(C)CCCC1.O=S(=O)([N-]S(=O)(=O)C(F)(F)F)C(F)(F)F + CO
[2]
Conditions	mass density, 288.15 K [kg/m3]	mass density, 298.15 K [kg/m3]	mass density, 308.15 K [kg/m3]	surface tension liquid-gas, 288.15 K [mN/m]	surface tension liquid-gas, 298.15 K [mN/m]	surface tension liquid-gas, 308.15 K [mN/m]	viscosity, 288.15 K [mPa·s]	viscosity, 298.15 K [mPa·s]	viscosity, 308.15 K [mPa·s]
x1 = 0.0495	970.4 ± 0.8	960.7 ± 0.8	951.1 ± 0.8	24.36 ± 0.32	23.54 ± 0.31	22.73 ± 0.31	–	–	–
x1 = 0.1886	1186.4 ± 0.5	1176.8 ± 0.5	1167.3 ± 0.5	26.9 ± 0.33	26.36 ± 0.33	25.86 ± 0.33	–	–	–
x1 = 0.2054	–	–	–	–	–	–	5.04 ± 0.11	3.91 ± 0.08	3.11 ± 0.07
x1 = 0.3407	1281.7 ± 0.3	1272.3 ± 0.3	1263 ± 0.4	29.25 ± 0.35	28.95 ± 0.35	28.63 ± 0.35	–	–	–
x1 = 0.4365	–	–	–	–	–	–	17.5 ± 0.38	12.51 ± 0.27	9.35 ± 0.2
x1 = 0.4932	1332.2 ± 0.4	1323 ± 0.3	1313.8 ± 0.3	31.03 ± 0.36	30.85 ± 0.36	30.54 ± 0.36	–	–	–
x1 = 0.5394	–	–	–	–	–	–	26.71 ± 0.58	18.54 ± 0.4	13.51 ± 0.29
x1 = 0.6076	1356.2 ± 0.4	1347 ± 0.4	1338 ± 0.4	32.08 ± 0.38	31.67 ± 0.37	31.36 ± 0.37	–	–	–
x1 = 0.637	1361.2 ± 0.4	1352.1 ± 0.4	1343 ± 0.4	32.25 ± 0.38	31.94 ± 0.38	31.65 ± 0.37	–	–	–
x1 = 0.7067	–	–	–	–	–	–	49.43 ± 1.1	32.82 ± 0.73	23.02 ± 0.51
x1 = 0.801	1384 ± 0.5	1375 ± 0.5	1366.1 ± 0.5	33.23 ± 0.39	32.77 ± 0.39	32.33 ± 0.38	–	–	–
x1 = 0.8363	1388.1 ± 0.5	1379.1 ± 0.5	1370.3 ± 0.5	–	–	–	–	–	–
x1 = 0.9135	1395.6 ± 0.5	1386.7 ± 0.5	1377.9 ± 0.5	33.57 ± 0.4	33.1 ± 0.4	32.65 ± 0.39	–	–	–
x1 = 1	1403.4 ± 0.6	1394.5 ± 0.6	1385.7 ± 0.6	33.71 ± 0.4	33.22 ± 0.4	32.82 ± 0.4	–	–	–

CC#N [acetonitrile]
[1]
Conditions	surface tension liquid-gas [mN/m]
288.15 K	29.53 ± 0.34
298.15 K	28.34 ± 0.34
308.15 K	27.15 ± 0.33

[1], 101 kPa
Conditions	mass density [kg/m3]
288.15 K	787.2 ± 0.2
298.15 K	776.53 ± 0.15
308.15 K	765.7 ± 0.2

CC#N [acetonitrile] + CCCC[N+]1(C)CCCC1.O=S(=O)([N-]S(=O)(=O)C(F)(F)F)C(F)(F)F
[2], x2 = 0
Conditions	mass density [kg/m3]	surface tension liquid-gas [mN/m]
288.15 K	787.2 ± 0.2	29.53 ± 0.34
298.15 K	776.5 ± 0.2	28.34 ± 0.34
308.15 K	765.7 ± 0.2	27.15 ± 0.33

CO [methanol]
[1]
Conditions	surface tension liquid-gas [mN/m]
288.15 K	22.88 ± 0.31
298.15 K	22 ± 0.3
308.15 K	21.01 ± 0.3

[1], 101 kPa
Conditions	mass density [kg/m3]
288.15 K	795.8 ± 0.2
298.15 K	786.45 ± 0.15
308.15 K	777 ± 0.2

CO [methanol] + CCCC[N+]1(C)CCCC1.O=S(=O)([N-]S(=O)(=O)C(F)(F)F)C(F)(F)F
[2], x2 = 0
Conditions	mass density [kg/m3]	surface tension liquid-gas [mN/m]
288.15 K	795.8 ± 0.2	22.88 ± 0.31
298.15 K	786.4 ± 0.2	22 ± 0.3
308.15 K	777 ± 0.2	21.01 ± 0.3
